Assay results from PubChem BioAssay (NCI).
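Five concentrations, 48 hours, 96-well plates. TGI is the concentration that stops growth completely.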

How the values were obtained:
Test in all cases: NCI tumour cell line growth inhibition, 48 h
BT-549 breast = system: BT-549 breast
CAKI-1 renal = system: CAKI-1 renal
COLO 205 colon = system: COLO 205 colon
DU-145 prostate = system: DU-145 prostate
HOP-62 NSCLC = system: HOP-62 NSCLC
HT29 colon = system: HT29 colon
KM12 colon = system: KM12 colon
LOX IMVI melanoma = system: LOX IMVI melanoma
M14 melanoma = system: M14 melanoma
NCI-H226 lung = system: NCI-H226 lung
OVCAR-8 ovarian = system: OVCAR-8 ovarian
SF-295 CNS = system: SF-295 CNS
SK-MEL-5 melanoma = system: SK-MEL-5 melanoma
SR leukemia = system: SR leukemia

Structure (SMILES) | TGI (BT-549 breast) | TGI (CAKI-1 renal) | TGI (COLO 205 colon) | TGI (DU-145 prostate) | TGI (HOP-62 NSCLC) | TGI (HT29 colon) | TGI (KM12 colon) | TGI (LOX IMVI melanoma) | TGI (M14 melanoma) | TGI (NCI-H226 lung) | TGI (OVCAR-8 ovarian) | TGI (SF-295 CNS) | TGI (SK-MEL-5 melanoma) | TGI (SR leukemia)
C[C@H]1[C@H](C)CC[C@]2(C(=O)OC3OC(CO)C(O)C(O)C3O)CC[C@]3(C)C(=CC[C@@H]4[C@@]5(C)C[C@@H](O)[C@@H]6OC(=O)c7cc(O)c(O)c(O)c7-c7c(cc(O)c(O)c7O)C(=O)OC[C@]6(CO)[C@@H]5CC[C@]43C)[C@H]12 (some centres not stated) | > 100 µM | > 53.3 µM | > 100 µM | > 100 µM | > 71.1 µM | > 55.8 µM | > 76.3 µM | 25.8 µM | > 100 µM | > 100 µM | > 100 µM | > 91 µM | > 100 µM | 73.3 µM
Brc1ccc(C2CC3(c4ccccc4)ON=C(c4ccccc4)N3c3ccccc3S2)cc1 (configuration not stated) | > 100 µM |  | > 100 µM | > 100 µM | > 100 µM | > 100 µM | > 100 µM | > 100 µM | > 100 µM | > 100 µM | > 100 µM | > 100 µM | > 100 µM | > 100 µM
NS(=O)(=O)c1nnc(NC(=O)/C=C/C(=O)O)s1 | > 100 µM | > 100 µM | > 100 µM | > 100 µM | > 100 µM | > 100 µM | > 100 µM | > 100 µM | > 100 µM |  | > 100 µM | > 100 µM | > 100 µM | > 100 µM
CC(=O)OCCCCn1cnc2c(Cl)nc(Nc3ccccc3)nc21 | > 100 µM | 62 µM | > 100 µM | > 100 µM | > 100 µM | > 100 µM | > 100 µM | > 100 µM |  | > 100 µM | > 100 µM | > 100 µM | > 100 µM | > 100 µM
CCSc1nc(C)nc2c1sc1nc3ccccc3n12 | > 100 µM | > 100 µM | > 100 µM | > 100 µM |  | > 100 µM | > 100 µM | > 100 µM | > 100 µM | > 100 µM | > 100 µM | > 100 µM | > 100 µM | > 100 µM
COc1cc2c3cc1Oc1c(OC)c(OC)cc4c1C(Cc1ccc(O)c(c1)-c1cc(ccc1OC)CC3N(C)CC2)N(C)CC4 (configuration not stated) | 51.1 µM | 59.6 µM | > 100 µM | > 100 µM |  | 50.4 µM | 37.6 µM | 83 µM | 15.5 µM | > 100 µM | 46.3 µM | 39.4 µM | 40.5 µM | 28.4 µM
CNC(=O)OCC1=C(COC(=O)NC)C(C)N(c2ccccc2)C1 (configuration not stated) | > 100 µM |  | 48.5 µM | > 100 µM | > 100 µM | 53.7 µM | > 100 µM | > 100 µM | 65.8 µM | 77.3 µM | > 100 µM | > 100 µM | 41.6 µM | 67.4 µM
Clc1nc(Nc2nc3ccccc3[nH]2)nc(Cl)c1-c1ccccc1 | 42.5 µM | > 100 µM | 51.3 µM | > 100 µM |  | 34.9 µM | > 100 µM |  | 98 µM | 46.4 µM | 69.4 µM | 46.8 µM | 53.5 µM | > 100 µM
Cc1nn(C(=O)c2ccncc2)c2c1C(c1ccc([N+](=O)[O-])cc1)SC(N)=N2 (configuration not stated) | > 100 µM |  | > 100 µM | > 100 µM | > 100 µM | > 100 µM | > 100 µM | > 100 µM | > 100 µM | > 100 µM | > 100 µM | > 100 µM | > 100 µM | > 100 µM
O=C(c1cccc2cc(O)ccc12)c1cn(CCN2CCOCC2)c2ccccc12 | 56.9 µM | > 100 µM | 78.8 µM | 73 µM | 46.1 µM | 37.1 µM |  | 39.1 µM | 36.9 µM | 87.3 µM | > 100 µM |  | 55.3 µM | > 100 µM
C=CCN(c1cc(OC)c2c(c1[N+](=O)[O-])C(C)(SC)C(=O)N2)S(C)(=O)=O (configuration not stated) | > 100 µM | > 100 µM | > 100 µM | > 100 µM |  | > 100 µM | > 100 µM | > 100 µM |  | > 100 µM | > 100 µM | > 100 µM | > 100 µM | > 100 µM
Cn1c(O)c(C=Nc2ccc(Cl)cc2Cl)c(=O)n(C)c1=O | > 100 µM | > 100 µM | > 100 µM |  | > 100 µM | > 100 µM | > 100 µM | > 100 µM | > 100 µM | > 100 µM | > 100 µM | > 100 µM | > 100 µM | > 100 µM
COc1cc2c3c(c1OC)C(=O)C(=O)C1=C3N(CCC1)CC2 | 72.6 µM | > 100 µM | 35.3 µM | > 100 µM | 96.9 µM | > 100 µM | 44.5 µM | > 100 µM | 70 µM |  | > 100 µM | 76.9 µM | > 100 µM | 55.5 µM
CCNC1=C(NC(=O)CCl)C(=O)c2ccccc2C1=O | > 10 µM |  | > 10 µM | > 10 µM | 30.2 µM | > 10 µM | 32 µM |  | 42.6 µM | 48.2 µM | 38.3 µM | 36.9 µM | 30.3 µM | 80.3 µM
CO/N=C(\C(=O)[N-][n+]1cnn(CC(=O)O)c1)c1csc(N)n1 | > 10 µM | > 10 µM | > 10 µM | > 10 µM | > 10 µM | > 10 µM | > 10 µM | > 10 µM | > 10 µM |  | > 10 µM |  | > 10 µM | > 10 µM
Nc1nc(Cc2ccccc2)nc(Cc2ccccc2)c1-c1ccccc1 | 50.9 µM | 96.1 µM |  | 56.1 µM | 54 µM | > 100 µM | 75 µM | 51.4 µM | > 100 µM | 53.4 µM | > 100 µM | > 100 µM | 29.2 µM | 48.5 µM
COc1ccc(/C=C2/SC(c3c(O)ccc4ccccc34)N(NC(=O)CCCCCCCCC(=O)NN3C(=O)/C(=C\c4ccc(OC)c(OC)c4)SC3c3c(O)ccc4ccccc34)C2=O)cc1OC (configuration not stated) | > 100 µM | > 100 µM | > 29.9 µM | > 100 µM | > 39.8 µM | > 100 µM | > 100 µM | 12.8 µM |  | 15.9 µM | 20.2 µM | > 100 µM | 2.29 µM | 1.62 µM
